Assay results as given in patent US10150760B2, “Compounds for use in preparing heterocyclic triazole agonists of the APJ receptor” (AMGEN INC., priority 2016, dated 2018).

Molecular target: human APJ receptor (Homo sapiens (Human), UniProt P35414)
Experiment: [35S]GTPγS binding assay on membranes from CHO cells stably expressing human APJ receptor
Assay type: biochemical
Conditions: read-out: Activity hAPJ SPA EC50 IP
Description: The human APJ receptor was cloned by polymerase chain reaction and the gene encoding the receptor was subcloned in pFLAG-CMV™-3 expression vector (Sigma, Saint Louis, Mo. USA) in-house at Amgen. A GTPγS binding assay was performed on membranes prepared from CHO cells stably expressing human APJ receptor. The optimum experimental conditions for the concentrations of GDP, MgCl2, and NaCl in the assay buffer were initially determined. The assay was performed in assay buffer [20 mM HEPES, pH 7.5, 5 mM MgCl2, and 0.1% (w/v) BSA with 200 mM NaCl, 3 μM GDP] and membranes expressing human APJ receptor/well along with WGA PS beads. The reaction was initiated by addition of 0.2 nM [^35S]GTPγS (Perkin Elmer Life and Analytical Sciences, Waltham USA) in the absence or presence of various ligands and incubated at RT for 90 min. Nonspecific binding was determined in the presence of 100 μM GTPγS and was always less than 0.2% of total binding. All the results presented are means of several independent experiments and analyzed by non-linear regression methods using commercially available program Prism (GraphPad, San Diego, Calif.) to obtain EC50 detailed in Table 38.

human APJ receptor, sequence (P35414 whole entry): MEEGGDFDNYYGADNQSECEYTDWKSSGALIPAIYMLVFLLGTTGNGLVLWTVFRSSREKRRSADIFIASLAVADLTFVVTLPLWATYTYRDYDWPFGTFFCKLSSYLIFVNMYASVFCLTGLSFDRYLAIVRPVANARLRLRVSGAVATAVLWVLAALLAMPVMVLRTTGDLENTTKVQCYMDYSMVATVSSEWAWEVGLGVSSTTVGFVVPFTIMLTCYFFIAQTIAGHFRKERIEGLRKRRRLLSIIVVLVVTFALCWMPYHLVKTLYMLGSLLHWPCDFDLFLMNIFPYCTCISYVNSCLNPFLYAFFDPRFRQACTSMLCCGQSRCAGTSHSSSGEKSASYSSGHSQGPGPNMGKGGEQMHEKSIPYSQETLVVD

Row | SMILES | EC50 [nM]
1 | COc1cccc(OC)c1-n1c(NS(=O)(=O)[C@@H](C)[C@H](C)c2ncc(Cl)cn2)nnc1[C@H]1OCC[C@H]1C (single isomer, unassigned) [Example 75.0, (2S,3R)-3-(5-chloropyrimidin-2-yl)-N-(4-(2,6-dimethoxyphenyl)-5-((2R,3S)-3-methyltetrahydrofuran-2-yl)-4H-1,2,4-triazol-3-yl)butane-2-sulfonamide or (2S,3R)-3-(5-chloropyrimidin-2-yl)-N-(4-(2,6-dimethoxyphenyl)-5-((2S,3R)-3-methyltetrahydrofuran-2-yl)-4H-1,2,4-triazol-3-yl)butane-2-sulfonamide] | 210
2 | COc1cccc(OC)c1-n1c(NS(=O)(=O)[C@@H](C)[C@H](C)c2ncc(Cl)cn2)nnc1[C@H]1OCC[C@H]1C (single isomer, unassigned) [Example 76.0, (2S,3R)-3-(5-chloropyrimidin-2-yl)-N-(4-(2,6-dimethoxyphenyl)-5-((2R,3S)-3-methyltetrahydrofuran-2-yl)-4H-1,2,4-triazol-3-yl)butane-2-sulfonamide or (2S,3R)-3-(5-chloropyrimidin-2-yl)-N-(4-(2,6-dimethoxyphenyl)-5-((2S,3R)-3-methyltetrahydrofuran-2-yl)-4H-1,2,4-triazol-3-yl)butane-2-sulfonamide] | 1.4
3 | COc1ncnc(OC)c1-n1c(NS(=O)(=O)[C@@H](C)[C@H](OC)c2ncc(Cl)cn2)nnc1[C@H]1CCCO1 (single isomer, unassigned) [Example 79.0, (1R,2S)-1-(5-chloropyrimidin-2-yl)-N-(4-(4,6-dimethoxypyrimidin-5-yl)-5-((S)-tetrahydrofuran-2-yl)-4H-1,2,4-triazol-3-yl)-1-methoxypropane-2-sulfonamide or (1R,2S)-1-(5-chloropyrimidin-2-yl)-N-(4-(4,6-dimethoxypyrimidin-5-yl)-5-((R)-tetrahydrofuran-2-yl)-4H-1,2,4-triazol-3-yl)-1-methoxypropane-2-sulfonamide] | 110
4 | COc1ncnc(OC)c1-n1c(NS(=O)(=O)[C@@H](C)[C@H](C)c2ncc(Cl)cn2)nnc1[C@H]1CCCO1 (single isomer, unassigned) [Example 81.0, (2S,3R)-3-(5-chloropyrimidin-2-yl)-N-(4-(4,6-dimethoxypyrimidin-5-yl)-5-((S)-tetrahydrofuran-2-yl)-4H-1,2,4-triazol-3-yl)butane-2-sulfonamide or (2S,3R)-3-(5-chloropyrimidin-2-yl)-N-(4-(4,6-dimethoxypyrimidin-5-yl)-5-((R)-tetrahydrofuran-2-yl)-4H-1,2,4-triazol-3-yl)butane-2-sulfonamide] | 82
5 | COc1ncnc(OC)c1-n1c(NS(=O)(=O)[C@@H](C)[C@H](C)c2ncc(Cl)cn2)nnc1[C@H]1CCCO1 (single isomer, unassigned) [Example 82.0, (2S,3R)-3-(5-chloropyrimidin-2-yl)-N-(4-(4,6-dimethoxypyrimidin-5-yl)-5-((S)-tetrahydrofuran-2-yl)-4H-1,2,4-triazol-3-yl)butane-2-sulfonamide or (2S,3R)-3-(5-chloropyrimidin-2-yl)-N-(4-(4,6-dimethoxypyrimidin-5-yl)-5-((R)-tetrahydrofuran-2-yl)-4H-1,2,4-triazol-3-yl)butane-2-sulfonamide] | 3
6 | COc1cccc(OC)c1-n1c(NS(=O)(=O)[C@@H](C)[C@H](OC)c2ncc(Cl)cn2)nnc1[C@H]1CCCCO1 (single isomer, unassigned) [Example 83.0, (1R,2S)-1-(5-chloropyrimidin-2-yl)-N-(4-(2,6-dimethoxyphenyl)-5-((S)-tetrahydro-2H-pyran-2-yl)-4H-1,2,4-triazol-3-yl)-1-methoxypropane-2-sulfonamide or (1R,2S)-1-(5-chloropyrimidin-2-yl)-N-(4-(2,6-dimethoxyphenyl)-5-((R)-tetrahydro-2H-pyran-2-yl)-4H-1,2,4-triazol-3-yl)-1-methoxypropane-2-sulfonamide] | 10
